Results on 7 compounds are retold here after publication PMC10161260 (The Journal of antimicrobial chemotherapy, 2023).

Data set [1] is classed as in vivo, human. As to conditions: for Mean peak concentration in rectal tissue: 48 h after the first dose; for Time of peak mean concentration in rectal tissue: after the first dose; for Time rectal tissue concentrations remained measurable after the second dose: in vivo.
Data set [2] is classed as in vivo, human. The conditions noted are these: for Cmax in PBMCs: all participants, geometric mean (95% CI).
The conditions of data set [3]: stated as known, no reference given; cited from earlier work.
A short description of data set [4]: clinical. More on the design: species or system human. The conditions noted are these: in vivo; for Cmax: po.
Data set [5] is described as follows: clinical. More on the design: species or system human. As to conditions: in vivo; for AUC0–120h in plasma / Cmax / Tmax / Mean plasma concentration by 72 h (48 h after the second dose): po.
The test system of another data set is HIV. As to conditions: cited from earlier work.
On the set-up of data set [6]: species or system human. The conditions noted are these: in vivo; for Antiretroviral drug detection, glans swab / Antiretroviral drug detection, urethral swab: male, human.
On the set-up of data set [7]: species or system human. The conditions noted are these: in vivo.
The nature of data set [8]: Rectal swab / rectal secretion drug concentrations after two oral doses in MSM. The conditions noted are these: for Mean concentration on rectal swabs at 48 h: 48 h after first dose (elvitegravir peak), geometric mean; for Concentration on rectal swabs by 120 h: LLOQ 1 ng/swab; for Time of peak mean concentration on rectal swabs: hours after first dose. It counts as in vivo, human.

The conditions of data set [9]: cited from earlier work.

Where two headings read alike, the source gives them in different places.

For the compound `CC(Cn1cnc2c(N)ncnc21)OCP(=O)(O)OP(=O)(O)OP(=O)(O)O` (stereo in doubt) [tenofovir diphosphate], in data set [1], the “Mean peak concentration in rectal tissue” value is given as 15.3 fmol/mg, the “Time of peak mean concentration in rectal tissue” value is reported as 48 h and the “Time rectal tissue concentrations remained measurable after the second dose” value is “at least 96 h”. Besides, the “Cmax in PBMCs” value in [2] is 552 (297–1026) fmol/10^6 PBMC. In addition, the “Tmax in PBMCs” value in data set [2] (hours after first dose) was 28 h.

For the compound `O=C(NCc1c(F)cc(F)cc1F)c1cn2c(c(O)c1=O)C(=O)N1[C@H]3CC[C@H](C3)O[C@@H]1C2` [bictegravir], the “Protein binding in plasma” value in data set [3] was “highly protein bound”. For the same compound, the “AUC0–120h in rectal tissue” value in “clinical [4]” is recorded as 20.53 (5.14) ng × h/mg. In addition, in “clinical [4]” (male, human), the “Mean rectal tissue concentration relative to PAEC95” value is “did not reach more than twice the PAEC95”, the concentration at 2 h was 270 ng/g and the maximum concentration (Cmax) stood at 290 ng/g. For the same compound, the “Plasma AUC0–120h of bictegravir relative to elvitegravir” value in “clinical [5]” (human) is “more than twice”. Further, the “AUC0–120h in plasma” value in the data set “clinical [5]” was 94 437 (8748) ng × h/mL. The “Mean plasma concentration 96 h after dosing” value in the data set “clinical [5]” (male, human, 96 h) is 273 (95% CI: 164–456) ng/mL. Besides, in “clinical [5]” (male, human), the Cmax was 1.77 µg/mL and the time to peak (Tmax) is 2 h. Further, in the data set with HIV, the “95% protein-adjusted effective concentration (PAEC95)” value was 162 ng/mL. In [6], the “Detection in penile secretions” value is recorded as “not consistently detected”; the “Antiretroviral drug detection, glans swab” value is reported as 2/71 (3%); the “Antiretroviral drug detection, urethral swab” value is listed as 3/71 (4%). For the same compound, the “Urine concentration within 48 h after the second dose” value in data set [7] is given as “undetectable”. In data set [7] (male, human), the “Antiretroviral drug detection, urine” value is reported as 32/70 (46%); the “Detected in urine specimens” value was found to be 46%; the Mean urine concentration result is given as “less than 1 μg/mL”. Besides, in data set [8], the “Mean concentration on rectal swabs at 48 h” value is reported as 2.1 ng/swab and the “Concentration on rectal swabs by 120 h” value is reported as “undetectable in most rectal swabs”.

Consider `C[C@H]1CO[C@@H]2Cn3cc(C(=O)NCc4ccc(F)cc4F)c(=O)c(O)c3C(=O)N12` [cabotegravir], for which the Tissue-to-plasma ratio result in data set [9] is recorded as “low tissue-to-plasma ratio”.

For the compound `COc1cc2c(cc1Cc1cccc(Cl)c1F)c(=O)c(C(=O)O)cn2[C@H](CO)C(C)C` [elvitegravir], in [3], the “Protein binding in plasma” value is “highly protein bound”. Besides, in the data set “clinical [4]”, the “AUC0–120h in rectal tissue” value was 469.78 (321.92) ng × h/mg. Further, in “clinical [4]” (male, human), the time to peak (Tmax) worked out at 4 h, the concentration at 2 h was 1070 ng/g and the Cmax was determined as 3310 ng/g. In addition, in “clinical [5]”, the “AUC0–120h in plasma” value is given as 44 472 (4341) ng × h/mL and the “Mean plasma concentration by 72 h (48 h after the second dose)” value is “undetectable”. Also, in the data set “clinical [5]” (male, human), the highest level (Cmax) was 2.01 µg/mL and the Tmax stood at 28 h. The “95% protein-adjusted inhibitory concentration (PAIC95)” value in the data set with HIV is 45 ng/mL. For the same compound, in data set [6], the “Detection in penile secretions” value is given as “not consistently detected”; the “Antiretroviral drug detection, glans swab” value is given as 9/80 (11%); the “Antiretroviral drug detection, urethral swab” value is recorded as 14/68 (21%). Also, in data set [7] (male, human), the “Antiretroviral drug detection, urine” value is listed as 4/73 (5%) and the “Detected in urine specimens” value is 5%. For the same compound, in data set [8], the “Mean concentration on rectal swabs at 48 h” value stood at 1085 ng/swab, the “Concentration on rectal swabs by 120 h” value is reported as “undetectable in most rectal swabs” and the “Time of peak mean concentration on rectal swabs” value (from here on “Time … on rectal swabs”) is 48 h. The “Elvitegravir rectal swab concentration at 48 h relative to bictegravir” value in [8] (P = 0.029) is “over 500 times”.

With `Nc1nc(=O)n([C@@H]2CS[C@H](COP(=O)(O)OP(=O)(O)OP(=O)(O)O)O2)cc1F` [emtricitabine triphosphate], in data set [1], the “Mean peak concentration in rectal tissue” value is 64.1 fmol/mg, the “Time of peak mean concentration in rectal tissue” value is 48 h and the “Time rectal tissue concentrations remained measurable after the second dose” value is on record as “at least 96 h”. The “Cmax in PBMCs” value in [2] is 7549 (6528–8729) fmol/10^6 PBMC. In addition, the Tmax in [2] (male, human, PBMCs, oral, 200 mg) was found to be 26 h.

With `Nc1nc(=O)n([C@@H]2CS[C@H](CO)O2)cc1F` [emtricitabine], the “Time of peak mean rectal tissue emtricitabine concentration” value in the data set “clinical [4]” (male, human) was found to be 4 h. In the data set “clinical [5]”, the “Mean plasma concentration by 72 h (48 h after the second dose)” value is given as “undetectable”. Moreover, in data set [7] (male, human), the “Detected in urine specimens (tenofovir and emtricitabine together)” value was 273/276. Further, the “Time … on rectal swabs” value in data set [8] is given as 48 h. Besides, the “Mean emtricitabine concentration on rectal swabs at 48 h (peak)” value in [8] (participants also receiving bictegravir) was determined as 57 ng/swab; in data set [8] (participants also receiving boosted elvitegravir), 241 ng/swab.

For `C[C@H](Cn1cnc2c(N)ncnc21)OCP(=O)(O)O` [tenofovir], the “Tenofovir concentration in rectal tissue” value in “clinical [4]” (male, human) is listed as “less than 1 ng/mg”. Moreover, the “Detected in urine specimens (tenofovir and emtricitabine together)” value in data set [7] (male, human) was 273/276. The “Time … on rectal swabs” value in data set [8] is on record as 48 h. Besides, the “Mean tenofovir concentration on rectal swabs at 48 h (peak)” value in data set [8] (not different between regimens) is on record as 16 ng/swab.

For orientation: Cmax means the highest concentration seen after dosing. For orientation: Tmax means the time from dosing to the highest level.
